Measurements taken from US11400056B2, “Pharmaceutical composition comprising gallstone solubilizer for treatment of gallbladder disease” (SurgiNex Co., Ltd., priority 2016, dated 2022).

What was measured:
[1] = Evaluation of gallstone dissolution, cholesterol stone; parameters: species or system human; conditions: 37° C., 4 hours; for Dissolution ability (%) Cholesterol stone: 0.5 g gallstone + 0.5 ml agent (1 g compound in 1 ml DMSO), (weight after dissolution)/(weight before dissolution)×100
Description: (§1) In order to evaluate the cholesterol stone and pigmented stone dissolution abilities of each of Examples 1 to 3 and Comparative Examples 1 and 2 prepared according to the Preparation Example above, cholesterol stones and pigmented stones removed during surgery of gallstone patients were obtained, thereby preparing gallstones. 0.5 g of each of the prepared gallstones was placed in an Eppendorf tube, and then 0.5 ml of each of the gallstone-dissolving agents of Examples 1 to 3 and Comparative Examples 1 and 2 was added to the Eppendorf tube containing the gallstone. Each tube was left to stand at 37° C. for 4 hours. Thereafter, the gallstone dissolution ability of each compound was evaluated by measuring the mass of the gallstones before and after dissolving the gallstone by treatment with each compound. The results of evaluating the abilities to dissolve cholesterol stones and pigmented stones are shown in Tables 2 and 3 below, respectively, and photographs before and after dissolving the gallstones are comparatively shown in FIGS. 1 and 2, respectively.
(§2) The gallstone dissolution ability was calculated using the following equation: Gallstone dissolution ability (%)=(weight of gallstone after dissolution)/(weight of gallstone before dissolution)×100

[2] = Evaluation of gallstone dissolution, pigmented stone; parameters: species or system human; conditions: 0.5 g gallstone + 0.5 ml agent (1 g compound in 1 ml DMSO), 37° C., 4 hours; (weight after dissolution)/(weight before dissolution)×100
Description: as §1, §2

## COC(C)(C)C [Comparative Example 1, Methyl tert-butyl ether, reference compound]
[1]
  Dissolution ability (%) Cholesterol stone: 24.07%

## CCOC(=O)CC [Comparative Example 2, ethyl propionate, reference compound]
[1]
  Dissolution ability (%) Cholesterol stone: 48.66%

## COc1cccc(C)n1 [Example 1, 2-methoxy-6-methylpyridine]
[1]
  Dissolution ability (%) Cholesterol stone: 14.16%
[2]
  Dissolution ability (%) Pigmented stone: 52.92%

## COC(=O)c1cccc(C)c1 [Example 2, methyl 3-methylbenzoate]
[1]
  Dissolution ability (%) Cholesterol stone: 10.00%
[1]; Table 2 and FIG. 1
  ability to dissolve the cholesterol stone (in words): excellent ability to dissolve the cholesterol stone
[2]
  Dissolution ability (%) Pigmented stone: 58.33%

## CC(=O)C1CC1 [Example 3, 1-cyclopropylethanone]
[1]
  Dissolution ability (%) Cholesterol stone: 28.57%
[2]
  Dissolution ability (%) Pigmented stone: 60.00%
